How the values were obtained:
γ globin chain = γ globin chain protein synthesis in anemic baboons; format: in vivo; conditions: mean of three animals
Description: Expression of γ-globin and erythroid cell production was evaluated in a primate model in which baboons are phlebotomized on a daily basis to simulate the chronic RBC destruction associated with hemoglobinopathies. In this model, baboons, aged 2 to 3 years, had 2.5 to 7 mL/kg of blood withdrawn daily, and the volume replaced with an identical volume of normal saline. Hemoglobin levels were lowered relative to control levels, but were maintained between 6.5 to 7.5 g/dL, the level necessary for the modulation of globin genes in this animal species. The animals were supplemented with iron dextran and folic acid. The phlebotomy regimen effectively exchanged the animals' total blood volume every 10 to 20 days.
Globin chain protein synthesis was measured in DMB treated animals using ^3H-leucine-labeled reticulocytes before and 2 and 4 days after treatment. Complete blood counts and reticulocyte counts were monitored 3 times per week and plasma concentrations of the test article was determined. DMB was administered intravenously (IV, daily) or orally via nasogastric gavage under light anesthesia (on 3 alternating days per week for up to 6 weeks), on a dose-escalation schedule with starting doses of 500 to 800 mg/kg. If γ globin induction was observed, lower doses (40-200 mg/kg) were tested. Recombinant human erythropoietin (rhu-EPO) was also administered in separate treatment courses to 2 baboons at doses of 300 U/kg three times per week subcutaneously as a positive control for the erythropoietic effects of DMB. Treatments were performed in individual baboons.
Induction of γ globin chain expression was evaluated by measuring γ globin protein synthesis.

[1] = Cardiovascular and hemodynamic effects, 28-Day Beagle dog study; format: in vivo, Beagle dogs
Description: Cardiovascular safety pharmacology assessments included an in vitro screen to evaluate the effects of DMB on cardiac ion channel and an in vivo evaluation of cardiovascular and hemodynamic effects in Beagle dogs. Electrophysiologic effects were evaluated in laboratory studies utilizing voltage-clamped human embryonic kidney cells transformed by adenovirus cDNA and transfected with cDNA in order to stably express the human ether a-go-go related gene (hERG). The effect on cellular hERG channels was evaluated at DMB concentrations up to 1 mM (138 μg/mL).

[2] = test system: E. coli tester strain WP2uvrA; assay: Ames reverse bacterial mutagenicity test; conditions: with and without S9 mix
Description: (§1) The standard battery of in vitro genetic toxicity tests were conducted with DMB. These tests were conducted with positive and vehicle controls, with and without metabolic activation, as appropriate, and in accordance with accepted guidelines.
(§2) For the Ames (reverse bacterial mutagenicity test), the tester strains used in the mutagenicity assay were S. typhimurium tester strains TA98, TA100, TA1535, and TA1537 and E. coli tester strain WP2uvrA. The assay was conducted in both the presence and absence of S9 mix along with concurrent vehicle and positive controls using three plates per dose.

[3] = test system: S. typhimurium tester strains TA98, TA100, TA1535, and TA1537; assay: Ames reverse bacterial mutagenicity test; conditions: with and without S9 mix
Description: as §1, §2

[4] = Immunotoxicology weight-of-evidence analysis, repeat dose rat study; format: in vivo, Sprague Dawley rat
From the text: The immunotoxicological potential of DMB has been evaluated by a weight-of-evidence analysis of the data generated in the repeat dose Sprague Dawley rat and Beagle dog studies. In both studies, there were no effects of treatment on WBC levels or lymph node histopathology, which are predictive of potential immunotoxicity.

[5] = Phase 1 repeat-dose clinical study, safety; format: in vivo, human
Description: DMB was evaluated in a phase 1, placebo-controlled, randomized, repeat dose clinical study that evaluated tolerability, safety, and pharmacokinetics in healthy volunteers. A total of 41 subjects (31 receiving active drug and 10 receiving placebo) completed 14 consecutive days of study medication at daily dose levels of 5, 10 or 15 mg/kg (10 subjects received placebo). Given the importance of iron in red blood cell production, and the requirement for iron supplementation for induction of HbF with other erythropoietic agents, subjects at all 3 dose levels received oral ferrous gluconate on the study medication days. DMB was administered with food to all but one group (5 mg/kg, cohort 1). Subjects were admitted and observed for 24 hours following initial dosing. Thereafter, the study drug was taken once per day at home, except for the last study day. The subjects were monitored weekly for 6 weeks. Thirty-seven subjects completed the study and 4 subjects dropped out due to conflicts. Safety and PK data are available on these subjects.
The treatment groups included: Cohort 1: 5 mg/kg fasting, 6 active, 2 placebo; Cohort 2: 5 mg/kg with food, 7 active, 2 placebo (3 drop outs); Cohort 3: 5 mg/kg with food and iron supplements, 6 active, 2 placebo (1 drop out); Cohort 4: 10 mg/kg with food and iron supplements, 6 active, 2 placebo; and Cohort 5: 15 mg/kg with food and iron supplements, 6 active, 2 placebo. Subjects in Cohorts 3, 4, and 5 received a single daily dose of ferrous gluconate (325 mg). The iron supplement was administered to evaluate study medication tolerability when taken with iron. No subjects discontinued due to AEs or safety concerns. Fewer subjects reported an event in the highest dose cohort following eating a meal ([…]) than were reported in the lower dose cohorts ([…], 5 and 10 mg/kg).
The AEs observed in this study are described in Table 11. All events were assessed as mild by the Principal Investigator and resolved either on study or post study. No SAEs were reported. Two subjects had transient lymphadenopathy that were not considered related to study medication. No laboratory abnormalities of significance were noted except one patient developed a urinary tract infection. No clinically significant ECG abnormalities were noted.

For `CCC(C)(C)C(=O)[O-].[Na+]` [DMB, Sodium 2,2-dimethylbutyrate], the “Increase % γ Globin Chain Synthesis” value (γ globin chain) was 6.6%, the “Increase Fold (γ globin chain synthesis)” value (γ globin chain) was 2.9 and the “% γ Globin Chain Synthesis, Treatment” value (γ globin chain; baseline 3.4) was 10.0%. The “QTc prolongation, average” value ([1]; 500 mg/kg/day, female Beagle dogs only, not statistically different from baseline (p>0.05)) was 14%, the “effects on systemic hemodynamics” value ([1]; 28-Day study) was “No effects” and the “cytotoxicity (background lawn growth)” value [2] was “no cytotoxicity was observed”. For the same compound, the mutation counts ([2]; up to 5000 per plate) was “No increase in mutation counts”, the “cytotoxicity (background lawn growth)” value [3] was “no cytotoxicity was observed” and the mutation counts ([3]; up to 5000 per plate) was “No increase in mutation counts”. The “effects on WBC levels or lymph node histopathology” value [4] was “no effects”, the SAEs reported ([5]; 5, 10, 15 mg/kg for 14 days) was “No SAEs” and the dose limiting toxicity ([5]; 5, 10, 15 mg/kg for 14 days) was “No dose limiting toxicity”. The tolerability ([5]; 5 to 15 mg/kg/day for 14 consecutive days) was “well-tolerated”, the “Subject incidence of Abdominal pain” value ([5]; DMB N = 31) was 3% and the “Subject incidence of Contusion of elbow” value ([5]; DMB N = 31) was 3%. For the same compound, the “Subject incidence of Diarrhea” value ([5]; DMB N = 31) was 6%, the “Subject incidence of Fatigue” value ([5]; DMB N = 31) was 3% and the “Subject incidence of Flatulence” value ([5]; DMB N = 31) was 6%. The “Subject incidence of Gastritis” value ([5]; DMB N = 31) was 3%, the “Subject incidence of Gastroenteritis” value ([5]; DMB N = 31) was 3% and the “Subject incidence of Headache” value ([5]; DMB N = 31) was 23%. For the same compound, the “Subject incidence of Light-headedness” value ([5]; DMB N = 31) was 3%, the “Subject incidence of Lymphadenopathy, inguinal” value ([5]; DMB N = 31) was 3% and the “Subject incidence of Menstrual cramps” value ([5]; DMB N = 31) was 6%. For the same compound, the “Subject incidence of Nausea” value ([5]; DMB N = 31) was 6%, the “Subject incidence of Pharyngeal erythema” value ([5]; DMB N = 31) was 3% and the “Subject incidence of Pharyngitis” value ([5]; DMB N = 31) was 6%. For the same compound, the “Subject incidence of Pregnancy” value ([5]; DMB N = 31) was 3%, the “Subject incidence of Reflux esophagitis” value ([5]; DMB N = 31) was 3% and the “Subject incidence of Spasm, esophageal” value ([5]; DMB N = 31) was 3%. For the same compound, the “Subject incidence of Sunburn” value ([5]; DMB N = 31) was 3%, the “Subject incidence of Upper respiratory infection” value ([5]; DMB N = 31) was 3% and the “Subject incidence of Urinary tract infection” value ([5]; DMB N = 31) was 3%. The “Subject incidence of Vaginal candidiasis” value ([5]; DMB N = 31) was 3%.
